Experimental data taken from ChEMBL document CHEMBL2074431, “The novel anticancer drug KRN5500 interacts with, but is hardly transported by, human P-glycoprotein” (Jpn J Cancer Res, 2000).

Target: ATP-dependent translocase ABCB1 (Homo sapiens, UniProt P08183)
Assay: TP_TRANSPORTER: inhibition of Azidopine photoaffinity labelling (Azidopine: 0.4 uM, KRN5500: 400 uM) in membrane fraction from MDR1-expressing LLC-PK1 cell
Type: functional, cell membranes
Settings: pig, llc-pk1, 400 µM

Sequence of ATP-dependent translocase ABCB1 (P08183 whole entry): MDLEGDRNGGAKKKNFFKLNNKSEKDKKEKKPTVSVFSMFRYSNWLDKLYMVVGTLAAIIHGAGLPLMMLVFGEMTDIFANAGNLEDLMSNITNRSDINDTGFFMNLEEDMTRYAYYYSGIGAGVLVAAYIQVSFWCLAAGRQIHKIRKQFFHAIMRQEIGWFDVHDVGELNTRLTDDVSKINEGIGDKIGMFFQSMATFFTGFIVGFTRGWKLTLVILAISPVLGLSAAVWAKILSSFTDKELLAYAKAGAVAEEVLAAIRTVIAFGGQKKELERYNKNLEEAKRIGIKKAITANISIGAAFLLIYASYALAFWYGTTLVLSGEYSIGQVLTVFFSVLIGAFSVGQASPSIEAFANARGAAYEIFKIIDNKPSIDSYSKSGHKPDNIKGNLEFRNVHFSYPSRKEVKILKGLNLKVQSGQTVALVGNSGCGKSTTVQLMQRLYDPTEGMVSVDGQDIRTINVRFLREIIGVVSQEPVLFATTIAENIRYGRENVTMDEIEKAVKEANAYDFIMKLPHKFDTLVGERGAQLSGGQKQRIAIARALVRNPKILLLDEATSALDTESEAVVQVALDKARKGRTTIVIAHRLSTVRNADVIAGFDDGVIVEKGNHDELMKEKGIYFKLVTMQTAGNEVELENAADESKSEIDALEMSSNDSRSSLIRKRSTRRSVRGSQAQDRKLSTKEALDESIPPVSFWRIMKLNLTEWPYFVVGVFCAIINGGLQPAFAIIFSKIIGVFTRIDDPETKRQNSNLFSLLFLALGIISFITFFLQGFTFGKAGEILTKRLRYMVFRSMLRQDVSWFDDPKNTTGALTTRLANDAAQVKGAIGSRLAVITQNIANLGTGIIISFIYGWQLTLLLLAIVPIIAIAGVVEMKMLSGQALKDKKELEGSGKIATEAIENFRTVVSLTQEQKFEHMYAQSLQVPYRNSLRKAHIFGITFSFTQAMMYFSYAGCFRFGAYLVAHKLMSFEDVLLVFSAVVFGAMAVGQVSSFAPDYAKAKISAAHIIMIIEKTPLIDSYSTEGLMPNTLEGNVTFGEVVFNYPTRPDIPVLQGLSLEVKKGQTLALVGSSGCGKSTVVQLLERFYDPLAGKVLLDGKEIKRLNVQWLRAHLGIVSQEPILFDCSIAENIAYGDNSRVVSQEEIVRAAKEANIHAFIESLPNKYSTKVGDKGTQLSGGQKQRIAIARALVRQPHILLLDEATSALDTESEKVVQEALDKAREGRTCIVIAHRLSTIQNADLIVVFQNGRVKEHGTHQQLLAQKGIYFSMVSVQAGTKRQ

Activity: inhibitor [+]
Structure (SMILES): CCCCCCCCC/C=C/C=C/C(=O)NCC(=O)N[C@@H]1[C@@H](O)[C@@H](O)[C@@H](Nc2ncnc3[nH]cnc23)O[C@H]1[C@@H](O)CO
